Reference: publication PMC5218480 (PLoS ONE, 2017)

Test system: MV-4-11 cells
Test: Gene expression microarray analysis (Affymetrix PrimeView) and GSEA
Assay type: cell-based, human
Design: RFU PODN (11730768_x_at) / Fold change /veh PODN (11730768_x_at) / RFU LINC00158 (11744669_a_at) / Fold change /veh LINC00158 (11744669_a_at) / RFU DUSP10 (11751237_a_at) / Fold change /veh DUSP10 (11751237_a_at) / RFU ID3 (11757404_x_at) / Fold change /veh ID3 (11757404_x_at) / RFU PLEKHG5 (11737974_s_at) / Fold change /veh PLEKHG5 (11737974_s_at) / RFU LRRC4B (11730491_at) / Fold change /veh LRRC4B (11730491_at) / RFU GIMAP4 (11747438_a_at) / Fold change /veh GIMAP4 (11747438_a_at) / RFU KRT8 (11758183_x_at) / Fold change /veh KRT8 (11758183_x_at) / RFU CNN1 (11734310_a_at) / Fold change /veh CNN1 (11734310_a_at) / RFU VPS37D (11726825_at) / Fold change /veh VPS37D (11726825_at) / RFU C10orf10 (11716522_x_at) / Fold change /veh C10orf10 (11716522_x_at) / RFU KIR2DL2 /// KIR2DL4 /// KIR2DL5A /// KIR2DL5B /// KIR2DS1 /// KIR2DS2 /// KIR2DS3 /// KIR2DS4 /// KIR3DL3 /// KIR3DL3 /// KIR3DS1 (11738374_at) / Fold change /veh KIR2DL2 /// KIR2DL4 /// KIR2DL5A /// KIR2DL5B /// KIR2DS1 /// KIR2DS2 /// KIR2DS3 /// KIR2DS4 /// KIR3DL3 /// KIR3DL3 /// KIR3DS1 (11738374_at) / RFU C1QL1 (11718748_at) / Fold change /veh C1QL1 (11718748_at) / RFU TMPRSS4 (11747572_a_at) / Fold change /veh TMPRSS4 (11747572_a_at) / RFU HAMP (11756126_x_at) / Fold change /veh HAMP (11756126_x_at) / RFU RNFT2 (11725882_a_at) / Fold change /veh RNFT2 (11725882_a_at) / RFU NR4A2 (11747474_a_at) / Fold change /veh NR4A2 (11747474_a_at) / RFU ABCC12 (11746883_a_at) / Fold change /veh ABCC12 (11746883_a_at) / RFU TMEM136 (11760407_x_at) / Fold change /veh TMEM136 (11760407_x_at) / RFU CLDN22 /// WWC2 (11732394_at) / Fold change /veh CLDN22 /// WWC2 (11732394_at) / RFU HLA-DPB1 (11760878_x_at) / Fold change /veh HLA-DPB1 (11760878_x_at) / RFU SPINT1 (11716480_a_at) / Fold change /veh SPINT1 (11716480_a_at) / RFU GAP43 (11754022_s_at) / Fold change /veh GAP43 (11754022_s_at) / RFU A4GNT (11735810_at) / Fold change /veh A4GNT (11735810_at) / RFU PRB3 (11715151_x_at) / Fold change /veh PRB3 (11715151_x_at) / RFU TUBB4B (11761932_at) / Fold change /veh TUBB4B (11761932_at) / RFU CAPN14 (11732068_a_at) / Fold change /veh CAPN14 (11732068_a_at) / RFU TMCC2 (11721928_a_at) / Fold change /veh TMCC2 (11721928_a_at) / RFU IRGQ (11745062_a_at) / Fold change /veh IRGQ (11745062_a_at) / RFU FAM174B (11720279_a_at) / Fold change /veh FAM174B (11720279_a_at) / RFU TMPRSS4 (11748680_a_at) / Fold change /veh TMPRSS4 (11748680_a_at) / RFU FAM212B (11763350_a_at) / Fold change /veh FAM212B (11763350_a_at) / RFU PLEKHG5 (11743358_a_at) / Fold change /veh PLEKHG5 (11743358_a_at) / RFU ZSCAN30 (11745921_a_at) / Fold change /veh ZSCAN30 (11745921_a_at) / RFU CMKLR1 (11741424_a_at) / Fold change /veh CMKLR1 (11741424_a_at) / RFU LOC101060620 /// MAPK8IP1 (11723275_at) / Fold change /veh LOC101060620 /// MAPK8IP1 (11723275_at) / RFU SPTSSB (11747773_x_at) / Fold change /veh SPTSSB (11747773_x_at) / RFU PRSS12 (11739890_at) / Fold change /veh PRSS12 (11739890_at) / RFU BIN1 (11741810_x_at) / Fold change /veh BIN1 (11741810_x_at) / RFU WNT11 (11732464_a_at) / Fold change /veh WNT11 (11732464_a_at) / RFU C10orf10 (11716521_a_at) / Fold change /veh C10orf10 (11716521_a_at) / RFU C5orf56 (11738089_at) / Fold change /veh C5orf56 (11738089_at) / RFU CYB561 (11721691_x_at) / Fold change /veh CYB561 (11721691_x_at) / RFU ANKRD19P (11752326_a_at) / Fold change /veh ANKRD19P (11752326_a_at) / RFU OR2T12 /// OR2T33 /// OR2T8 (11738714_s_at) / Fold change /veh OR2T12 /// OR2T33 /// OR2T8 (11738714_s_at) / RFU VCAN (11748164_a_at) / Fold change /veh VCAN (11748164_a_at) / RFU JSRP1 (11732532_at) / Fold change /veh JSRP1 (11732532_at) / RFU KRTAP10-11 (11738290_x_at) / Fold change /veh KRTAP10-11 (11738290_x_at) / RFU MYO3A (11730013_a_at) / Fold change /veh MYO3A (11730013_a_at) / RFU EBF3 (11725865_a_at) / Fold change /veh EBF3 (11725865_a_at) / RFU CAMK2N1 (11719241_x_at) / Fold change /veh CAMK2N1 (11719241_x_at) / RFU C5orf56 (11738088_a_at) / Fold change /veh C5orf56 (11738088_a_at) / RFU OLFML3 (11715873_a_at) / Fold change /veh OLFML3 (11715873_a_at) / RFU LOC100653217 /// NTM (11731650_a_at) / Fold change /veh LOC100653217 /// NTM (11731650_a_at) / RFU MAPK11 (11762145_a_at) / Fold change /veh MAPK11 (11762145_a_at) / RFU FIZ1 (11724087_x_at) / Fold change /veh FIZ1 (11724087_x_at) / RFU OASL (11726364_x_at) / Fold change /veh OASL (11726364_x_at) / RFU SOX15 (11748057_x_at) / Fold change /veh SOX15 (11748057_x_at) / RFU CD79A (11719716_a_at) / Fold change /veh CD79A (11719716_a_at) / RFU HIST1H1D (11736915_at) / Fold change /veh HIST1H1D (11736915_at) / RFU CASKIN2 (11723855_a_at) / Fold change /veh CASKIN2 (11723855_a_at) / RFU LOC730098 (11760151_x_at) / Fold change /veh LOC730098 (11760151_x_at) / RFU OR4N2 (11742367_at) / Fold change /veh OR4N2 (11742367_at) / RFU PRRT2 (11749266_a_at) / Fold change /veh PRRT2 (11749266_a_at) / RFU SNX32 (11753110_a_at) / Fold change /veh SNX32 (11753110_a_at) / RFU CDHR5 (11726645_a_at) / Fold change /veh CDHR5 (11726645_a_at) / RFU RCAN1 (11760418_a_at) / Fold change /veh RCAN1 (11760418_a_at) / RFU FAM167A (11723789_a_at) / Fold change /veh FAM167A (11723789_a_at) / RFU FAM26E (11764081_at) / Fold change /veh FAM26E (11764081_at) / RFU ISYNA1 (11749810_s_at) / Fold change /veh ISYNA1 (11749810_s_at) / RFU ACY1 (11761880_at) / Fold change /veh ACY1 (11761880_at) / RFU 11764098_at / Fold change /veh 11764098_at / RFU SAMD14 (11745864_x_at) / Fold change /veh SAMD14 (11745864_x_at) / RFU NPB (11741838_a_at) / Fold change /veh NPB (11741838_a_at) / RFU TMPRSS6 (11731388_a_at) / Fold change /veh TMPRSS6 (11731388_a_at) / RFU KRTAP10-2 (11738614_at) / Fold change /veh KRTAP10-2 (11738614_at) / RFU ARHGAP8 /// PRR5-ARHGAP8 (11727945_x_at) / Fold change /veh ARHGAP8 /// PRR5-ARHGAP8 (11727945_x_at) / RFU KRTAP5-7 /// NADSYN1 (11734609_at) / Fold change /veh KRTAP5-7 /// NADSYN1 (11734609_at) / RFU RASL12 (11751679_a_at) / Fold change /veh RASL12 (11751679_a_at) / RFU CDKN2B (11736163_a_at) / Fold change /veh CDKN2B (11736163_a_at) / RFU PRF1 (11729649_at) / Fold change /veh PRF1 (11729649_at) / RFU, ZNF638 /// ZNF638-IT1 / Fold change vs veh, ZNF638 /// ZNF638-IT1 / RFU, PANK3 / Fold change vs veh, PANK3 / RFU, SH3YL1 / Fold change vs veh, SH3YL1 / RFU, ZEB2 / Fold change vs veh, ZEB2 / RFU, NRIP1 / Fold change vs veh, NRIP1 / RFU, PTTG1IP / Fold change vs veh, PTTG1IP / RFU, CAPN2 / Fold change vs veh, CAPN2 / RFU, MED14 / Fold change vs veh, MED14 / RFU, SNORA58 / Fold change vs veh, SNORA58 / RFU, C1orf63 / Fold change vs veh, C1orf63 / RFU, LRRFIP1 / Fold change vs veh, LRRFIP1 / RFU, NDUFAF7 / Fold change vs veh, NDUFAF7 / RFU, SLC12A2 / Fold change vs veh, SLC12A2 / RFU, IBTK / Fold change vs veh, IBTK / RFU, ESF1 / Fold change vs veh, ESF1 / Fold change vs veh, TMEM50B / RFU, TAOK1 / Fold change vs veh, TAOK1 / RFU, ACBD3 / Fold change vs veh, ACBD3 / RFU, TMA16 / Fold change vs veh, TMA16 / RFU, RWDD3 / Fold change vs veh, RWDD3 / RFU, BCAT1 / Fold change vs veh, BCAT1 / RFU, EDEM3 / Fold change vs veh, EDEM3 / RFU, TMEM33 / Fold change vs veh, TMEM33 / RFU, WDR75 / Fold change vs veh, WDR75 / RFU, AHCTF1 / Fold change vs veh, AHCTF1 / RFU, TFRC / Fold change vs veh, TFRC / RFU, ZDHHC17 / Fold change vs veh, ZDHHC17 / RFU, NOM1 / Fold change vs veh, NOM1 / RFU, ARL8B / Fold change vs veh, ARL8B / RFU, ZBTB11 / Fold change vs veh, ZBTB11 / RFU, TAMM41 / Fold change vs veh, TAMM41 / RFU, KIAA1704 /// LOC100996395 / Fold change vs veh, KIAA1704 /// LOC100996395 / RFU, ING1 / Fold change vs veh, ING1 / RFU, TRMT61B / Fold change vs veh, TRMT61B / RFU, FUBP3 / Fold change vs veh, FUBP3 / RFU, TP53 / Fold change vs veh, TP53 / RFU, TNKS2 / Fold change vs veh, TNKS2 / RFU, ZFP14 / Fold change vs veh, ZFP14 / RFU, ACTR2 / Fold change vs veh, ACTR2 / RFU, PPP3R1 / Fold change vs veh, PPP3R1 / RFU, PIK3R1 / Fold change vs veh, PIK3R1 / RFU, HNRNPA1 / Fold change vs veh, HNRNPA1 / RFU, RNF170 / Fold change vs veh, RNF170 / RFU, ZNF28 / Fold change vs veh, ZNF28 / RFU, RNGTT / Fold change vs veh, RNGTT / RFU, OGT / Fold change vs veh, OGT / RFU, BRD1 / Fold change vs veh, BRD1 / RFU, MARS / Fold change vs veh, MARS / RFU, ZNF655 / Fold change vs veh, ZNF655 / RFU, FAHD1 / Fold change vs veh, FAHD1 / RFU, BDP1 / Fold change vs veh, BDP1 / RFU, LRRCC1 / Fold change vs veh, LRRCC1 / RFU, ARID1A / Fold change vs veh, ARID1A / RFU, ZNF146 / Fold change vs veh, ZNF146 / RFU, ZNF330 / Fold change vs veh, ZNF330 / RFU, GPN3 / Fold change vs veh, GPN3 / RFU, C9orf123 / Fold change vs veh, C9orf123 / RFU, N4BP2L2 / Fold change vs veh, N4BP2L2 / RFU, ARFIP1 / Fold change vs veh, ARFIP1 / RFU, FAM179B / Fold change vs veh, FAM179B / RFU, BCL10 / Fold change vs veh, BCL10 / RFU, UHRF1BP1L / Fold change vs veh, UHRF1BP1L / RFU, BET1 / Fold change vs veh, BET1 / RFU, CNOT2 / Fold change vs veh, CNOT2 / RFU, ZNF268 / Fold change vs veh, ZNF268 / Fold change vs veh, ZNF507 / RFU, DGCR2 / Fold change vs veh, DGCR2 / RFU, WDSUB1 / Fold change vs veh, WDSUB1 / Fold change vs veh, HSP90B1 /// MIR3652 / RFU, ADSS / Fold change vs veh, ADSS / RFU, GK / Fold change vs veh, GK / RFU, ZNF148 / Fold change vs veh, ZNF148 / RFU, TAF9 / Fold change vs veh, TAF9 / RFU, SLC1A5 / Fold change vs veh, SLC1A5 / RFU, SLMO2 / Fold change vs veh, SLMO2 / RFU, ABCC4 / Fold change vs veh, ABCC4 / RFU, LOC101060439 /// RAP1B / Fold change vs veh, LOC101060439 /// RAP1B / RFU, RFX7 / Fold change vs veh, RFX7 / RFU, GTPBP10 / Fold change vs veh, GTPBP10 / RFU, CNEP1R1 / Fold change vs veh, CNEP1R1 / RFU, BIVM-ERCC5 /// ERCC5 / Fold change vs veh, BIVM-ERCC5 /// ERCC5 / RFU, ILF3 / Fold change vs veh, ILF3 / RFU 11762660_at / Fold change /veh 11762660_at / RFU VCAN (11757783_s_at) / Fold change /veh VCAN (11757783_s_at) / RFU DDX43 (11728927_at) / Fold change /veh DDX43 (11728927_at) / RFU KRT8 (11758188_x_at) / Fold change /veh KRT8 (11758188_x_at) / RFU NKD1 (11759106_at) / Fold change /veh NKD1 (11759106_at) / RFU SRD5A1 (11742802_a_at) / Fold change /veh SRD5A1 (11742802_a_at) / RFU TPSAB1 /// TPSB2 (11721975_s_at) / Fold change /veh TPSAB1 /// TPSB2 (11721975_s_at) / RFU GSTM3 (11746129_a_at) / Fold change /veh GSTM3 (11746129_a_at) / RFU IL23R (11737362_x_at) / Fold change /veh IL23R (11737362_x_at) / RFU TMEM51 (11727254_a_at) / Fold change /veh TMEM51 (11727254_a_at) / RFU PIWIL2 (11732686_x_at) / Fold change /veh PIWIL2 (11732686_x_at) / RFU ORM1 (11744905_x_at) / Fold change /veh ORM1 (11744905_x_at) / RFU CCDC152 (11743942_at) / Fold change /veh CCDC152 (11743942_at) / RFU ECM1 (11717891_a_at) / Fold change /veh ECM1 (11717891_a_at) / RFU IL23R (11748794_a_at) / Fold change /veh IL23R (11748794_a_at) / RFU TNFAIP8L3 (11732012_x_at) / Fold change /veh TNFAIP8L3 (11732012_x_at) / RFU MBOAT4 (11741988_at) / Fold change /veh MBOAT4 (11741988_at) / RFU 11764193_at / Fold change /veh 11764193_at / RFU TMEM53 (11763286_at) / Fold change /veh TMEM53 (11763286_at) / RFU MAGEB2 (11727129_at) / Fold change /veh MAGEB2 (11727129_at) / RFU TMEM200A (11744735_a_at) / Fold change /veh TMEM200A (11744735_a_at) / RFU CCDC152 (11751479_a_at) / Fold change /veh CCDC152 (11751479_a_at) / RFU FAM211A (11726209_a_at) / Fold change /veh FAM211A (11726209_a_at) / RFU RGS16 (11746705_a_at) / Fold change /veh RGS16 (11746705_a_at) / RFU VCAN (11755009_s_at) / Fold change /veh VCAN (11755009_s_at) / RFU RHOB (11743442_s_at) / Fold change /veh RHOB (11743442_s_at) / RFU RGS16 (11720943_a_at) / Fold change /veh RGS16 (11720943_a_at) / RFU RGS16 (11720944_at) / Fold change /veh RGS16 (11720944_at) / RFU, VPS4B / Fold change vs veh, VPS4B / RFU, CREB1 / Fold change vs veh, CREB1 / RFU, DNAJC13 / Fold change vs veh, DNAJC13 / RFU, GNAQ / Fold change vs veh, GNAQ / RFU, CDK5R1 / Fold change vs veh, CDK5R1 / RFU, ZRANB3 / Fold change vs veh, ZRANB3 / RFU, CUL4A / Fold change vs veh, CUL4A / RFU, CCNY / Fold change vs veh, CCNY / RFU, UFL1 / Fold change vs veh, UFL1 / RFU, COG3 / Fold change vs veh, COG3 / RFU, DIAPH2 / Fold change vs veh, DIAPH2 / RFU, SKA2 / Fold change vs veh, SKA2 / RFU, AFF3 / Fold change vs veh, AFF3 / RFU, LMF1 / Fold change vs veh, LMF1 / RFU, IPO11 / Fold change vs veh, IPO11 / RFU, DFFB / Fold change vs veh, DFFB / RFU, FOXP1 / Fold change vs veh, FOXP1 / RFU, CARD8 / Fold change vs veh, CARD8 / RFU, STRN3 / Fold change vs veh, STRN3 / RFU, ADK / Fold change vs veh, ADK / RFU, RASSF2 / Fold change vs veh, RASSF2 / RFU, WIPF1 / Fold change vs veh, WIPF1 / RFU, LARP1B / Fold change vs veh, LARP1B / RFU, RASA1 / Fold change vs veh, RASA1 / RFU, RB1 / Fold change vs veh, RB1 / RFU, PPFIA1 / Fold change vs veh, PPFIA1 / RFU, MAT2A / Fold change vs veh, MAT2A / RFU, CCT5 / Fold change vs veh, CCT5 / RFU, WDR92 / Fold change vs veh, WDR92 / RFU, CUX1 / Fold change vs veh, CUX1 / RFU, TTC7A / Fold change vs veh, TTC7A / RFU, TMEM135 / Fold change vs veh, TMEM135 / RFU, DEPTOR / Fold change vs veh, DEPTOR / RFU, CPM / Fold change vs veh, CPM / RFU, DNAJB6 / Fold change vs veh, DNAJB6 / RFU, CACNA2D3 / Fold change vs veh, CACNA2D3 / RFU, DTX4 / Fold change vs veh, DTX4 / RFU, TFCP2 / Fold change vs veh, TFCP2 / RFU, GMCL1 /// GMCL1P1 / Fold change vs veh, GMCL1 /// GMCL1P1 / RFU, AEBP2 / Fold change vs veh, AEBP2 / RFU, SNHG1 /// SNORD22 /// SNORD25 /// SNORD26 /// SNORD27 /// SNORD28 /// SNORD29 /// SNORD31 / Fold change vs veh, SNHG1 /// SNORD22 /// SNORD25 /// SNORD26 /// SNORD27 /// SNORD28 /// SNORD29 /// SNORD31 / Fold change (Aza/veh), C12orf56 (ProbeSet 11735607_a_at) / Fold change (ACY-1035/veh), C12orf56 (ProbeSet 11735607_a_at) / Fold change (Aza/veh), FGFR1OP (ProbeSet 11751329_s_at) / Fold change (ACY-1035/veh), FGFR1OP (ProbeSet 11751329_s_at) / Fold change (Aza/veh), VPS36 (ProbeSet 11739960_a_at) / Fold change (ACY-1035/veh), VPS36 (ProbeSet 11739960_a_at) / RFU SYPL1 (11715823_x_at) / Fold change /veh SYPL1 (11715823_x_at) / RFU IGFBP7 (11715501_s_at) / Fold change /veh IGFBP7 (11715501_s_at) / RFU REEP3 (11722064_at) / Fold change /veh REEP3 (11722064_at) / RFU IGLL1 (11728026_x_at) / Fold change /veh IGLL1 (11728026_x_at): dose or concentration left out as unconfirmed
Settings: MV-4-11 cells, 48 hours

Question: For `Nc1ncn([C@@H]2O[C@H](CO)[C@@H](O)[C@H]2O)c(=O)n1` [azacitidine], which “Fold change /veh HLA-DPB1 (11760878_x_at)” value is on record?
Answer: 0.86
